How the values were obtained:
Conditions in all cases: in vivo
[1] = Ratio of drug uptake in tumor to skin in human KB cells expressing folate receptor xenografted athymic Swiss nude mouse with folate free diet assessed as fluorescence accumulation by UV-visible spectrophotometer; assay type: ADME, cell-based
[2] = Ratio of drug uptake in tumor to skin in folate receptor deficient HT29 cells xenografted athymic Swiss nude mouse with folate diet assessed as fluorescence accumulation by UV-visible spectrophotometer; assay type: ADME, cell-based, HT-29
[3] = Ratio of drug uptake in tumor to skin in folate receptor deficient HT29 cells xenografted athymic Swiss nude mouse with folate free diet assessed as fluorescence accumulation by UV-visible spectrophotometer; assay type: ADME, cell-based, HT-29
[4] = Ratio of drug uptake in tumor to skin in human KB cells expressing folate receptor xenografted athymic Swiss nude mouse with folate diet assessed as fluorescence accumulation by UV-visible spectrophotometer; assay type: ADME, cell-based

Ratio [1]	Ratio [2]	Ratio [3]	Ratio [4]	Compound
2.1	1.1	3.7	2.8	O=C(O)c1ccc(-c2c3nc(c(-c4cccc(O)c4)c4ccc([nH]4)c(-c4cccc(O)c4)c4nc(c(-c5cccc(O)c5)c5ccc2[nH]5)C=C4)CC3)cc1
5	2.1	1	1.9	Nc1nc(O)c2nc(CNc3ccc(C(=O)NC(CCC(=O)NCCOCCOCCNC(=O)c4ccc(-c5c6nc(c(-c7cccc(O)c7)c7ccc([nH]7)c(-c7cccc(O)c7)c7nc(c(-c8cccc(O)c8)c8ccc5[nH]8)C=C7)CC6)cc4)C(=O)O)cc3)cnc2n1 (stereo not drawn)

Reference: ChEMBL document CHEMBL1157536, “Improvement of meta-tetra(hydroxyphenyl)chlorin-like photosensitizer selectivity with folate-based targeted delivery. synthesis and in vivo delivery studies” (J Med Chem, 2008)
